Target: T1, Fiz (Drosophila melanogaster, UniProt Q9VY04)
T1 construct: N-terminal RGS-6xHis tag kept; E. coli Rosetta Gami DE3, Ni-NTA; contains FAD
T1 sequence (Q9VY04 2-646): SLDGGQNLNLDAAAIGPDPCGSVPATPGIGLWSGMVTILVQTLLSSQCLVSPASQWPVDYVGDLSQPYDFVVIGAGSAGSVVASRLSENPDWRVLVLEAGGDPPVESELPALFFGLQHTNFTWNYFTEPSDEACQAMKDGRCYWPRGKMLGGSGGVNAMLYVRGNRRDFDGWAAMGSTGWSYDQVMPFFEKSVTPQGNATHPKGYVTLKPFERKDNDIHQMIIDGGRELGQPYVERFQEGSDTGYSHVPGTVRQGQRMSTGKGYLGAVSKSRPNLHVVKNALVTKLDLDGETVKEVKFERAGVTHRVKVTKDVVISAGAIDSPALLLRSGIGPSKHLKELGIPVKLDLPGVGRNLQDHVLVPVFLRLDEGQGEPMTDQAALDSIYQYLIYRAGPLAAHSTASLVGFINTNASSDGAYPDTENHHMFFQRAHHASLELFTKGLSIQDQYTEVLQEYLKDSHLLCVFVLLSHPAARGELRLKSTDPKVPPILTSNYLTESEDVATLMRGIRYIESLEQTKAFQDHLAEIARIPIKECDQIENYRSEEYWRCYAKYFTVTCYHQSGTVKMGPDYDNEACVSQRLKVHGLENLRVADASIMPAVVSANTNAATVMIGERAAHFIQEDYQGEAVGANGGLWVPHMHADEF
Assay: FAD content of purified protein (method in supplement)
Assay type: binding
Conditions: co-purified from E. coli, no FAD addition told

For `Cc1cc2nc3c(=O)[nH]c(=O)nc-3n(C[C@H](O)[C@H](O)[C@H](O)COP(=O)(O)OP(=O)(O)OC[C@H]3O[C@@H](n4cnc5c(N)ncnc54)[C@H](O)[C@@H]3O)c2cc1C` [FAD], the “FAD content of purified protein (method in supplement)” value was “we confirmed that our purified Fiz contained FAD”.

Reference: article PMC10962836, “Cis-regulatory polymorphism at fiz ecdysone oxidase contributes to polygenic evolutionary response to malnutrition in Drosophila” (PLOS Genetics, 2024)
